The values that follow come from ChEMBL document CHEMBL1201862, “PubChem BioAssay data set” (2004).

One experiment concerns H4. As to the kind of experiment: Luminescence Cell-Based Dose Response HTS to Identify Activators of 5'UTR Stem-Loop Driven Prion Protein mRNA Translation in H4 Neuroglioblastoma Cells. [Related pubchem assays: 1829 (Project Summary), 1814 (Primary HTS)]. The class given is functional. The settings on record: Homo sapiens.
Experiment [1] can be described thus: Luminescence Cell-Based Dose Response HTS to Identify Activators of Luciferase Translation or Activity in H4 […] Cells. [Related pubchem assays: 1829 (Project Summary), 1814 (Primary HTS)]. Format: functional.
For another experiment, the target named is Cytochrome P450 2D6 (Homo sapiens, UniProt P10635).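 Note: CYP2D6 member of a cytochrome P450 panel assay.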
Experiment [2] in a line: Luminescence Cell-Based Dose Response HTS to Identify Inhibitors of 5'UTR Stem-Loop Driven Prion Protein mRNA Translation in H4 Neuroglioblastoma Cells. [Related pubchem assays: 1827 (Project Summary), 1813 (Primary HTS)]. Format: functional.
Experiment [3] is described as follows: inhibitors of firefly luciferase expression or activity, dose response, H4 neuroglioma cells, luminescence (AID 1990). Format: functional, cell-based.
Experiment [4] can be described thus: inhibitors of SNCA 5'UTR-driven reporter translation, confirmation, H4 neuroglioma cells, luminescence (AID 1988). Format: functional, cell-based.
In experiment [5] the target is T1, Rac GTPase-activating protein 1 (Homo sapiens, UniProt Q9H0H5).
T1 sequence (Q9H0H5 whole entry): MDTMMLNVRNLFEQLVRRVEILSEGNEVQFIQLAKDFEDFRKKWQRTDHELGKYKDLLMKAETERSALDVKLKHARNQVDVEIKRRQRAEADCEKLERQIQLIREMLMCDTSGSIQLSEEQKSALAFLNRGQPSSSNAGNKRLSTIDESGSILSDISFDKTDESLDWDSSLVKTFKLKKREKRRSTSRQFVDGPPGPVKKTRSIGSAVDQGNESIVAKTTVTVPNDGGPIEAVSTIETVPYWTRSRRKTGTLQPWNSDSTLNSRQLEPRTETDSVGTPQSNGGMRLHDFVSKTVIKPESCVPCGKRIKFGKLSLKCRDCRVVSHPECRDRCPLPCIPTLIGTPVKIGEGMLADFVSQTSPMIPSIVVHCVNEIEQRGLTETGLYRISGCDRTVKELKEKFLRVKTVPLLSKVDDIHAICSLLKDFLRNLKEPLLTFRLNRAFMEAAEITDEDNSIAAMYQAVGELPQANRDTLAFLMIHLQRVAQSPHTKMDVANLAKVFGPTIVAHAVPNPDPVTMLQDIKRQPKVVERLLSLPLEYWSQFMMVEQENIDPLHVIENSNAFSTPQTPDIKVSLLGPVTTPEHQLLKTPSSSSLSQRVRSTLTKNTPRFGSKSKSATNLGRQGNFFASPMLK
As to the kind of experiment: MgcRacGAP GTPase-activating activity inhibitors, confirmation, biochemical, ADP Hunter fluorescence, primary and confirmatory (AID 624330). Format: functional.

The target in the next experiment is T2, Cytochrome P450 1A2 (Homo sapiens, UniProt P05177).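 Note: PubChem cytochrome P450 panel assay, CYP1A2 panel member.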
T2 sequence (P05177 whole entry): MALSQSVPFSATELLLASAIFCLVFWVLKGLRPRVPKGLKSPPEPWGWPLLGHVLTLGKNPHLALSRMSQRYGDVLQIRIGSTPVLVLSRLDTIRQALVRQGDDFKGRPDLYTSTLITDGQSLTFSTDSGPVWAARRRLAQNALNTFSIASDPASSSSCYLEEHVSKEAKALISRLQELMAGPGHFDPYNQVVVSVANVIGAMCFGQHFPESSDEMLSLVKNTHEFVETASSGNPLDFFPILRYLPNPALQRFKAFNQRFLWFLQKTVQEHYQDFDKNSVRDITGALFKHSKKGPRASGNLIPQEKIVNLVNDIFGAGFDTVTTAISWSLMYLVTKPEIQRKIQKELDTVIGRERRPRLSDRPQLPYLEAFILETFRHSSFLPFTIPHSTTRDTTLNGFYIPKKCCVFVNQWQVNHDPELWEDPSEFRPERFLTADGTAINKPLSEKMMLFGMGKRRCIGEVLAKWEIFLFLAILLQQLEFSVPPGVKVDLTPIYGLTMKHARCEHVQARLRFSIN

Experiment [6] is described as follows: cytotoxicity toward NIH3T3 fibroblasts, dose response, counter-screen, cell-based, ATP luminescence, mouse fibroblasts (AID 2010).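 Note: cells exposed to compound for about 90 hours before reading.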 Format: functional.
The nature of experiment [7]: inhibitors of intracellular T. cruzi replication, confirmation, NIH3T3 host cells, beta-gal luminescence (AID 2044).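 Note: intracellular parasites grown in NIH/3T3 mouse fibroblasts as host cells; luminescent beta-galactosidase reporter signal from transgenic T. cruzi replicating inside host cells; inhibitors lower the luminescence signal.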 The class given is functional, cell-based.
A further experiment deals with Cytochrome P450 2C19 (Homo sapiens, UniProt P33261). Put plainly: Cytochrome panel assay with activity outcomes. Panel member name: p450-cyp2c19 Compounds with AC50 equal or less than 10 uM are considered active. The class given is functional. The note with it: read-out: AC50.
A further experiment deals with Cytochrome P450 2C9 (Homo sapiens, UniProt P11712).

Each structure is given as a SMILES string. The source made the active and inactive calls.

Cytochrome P450 2D6, sequence (P10635 whole entry): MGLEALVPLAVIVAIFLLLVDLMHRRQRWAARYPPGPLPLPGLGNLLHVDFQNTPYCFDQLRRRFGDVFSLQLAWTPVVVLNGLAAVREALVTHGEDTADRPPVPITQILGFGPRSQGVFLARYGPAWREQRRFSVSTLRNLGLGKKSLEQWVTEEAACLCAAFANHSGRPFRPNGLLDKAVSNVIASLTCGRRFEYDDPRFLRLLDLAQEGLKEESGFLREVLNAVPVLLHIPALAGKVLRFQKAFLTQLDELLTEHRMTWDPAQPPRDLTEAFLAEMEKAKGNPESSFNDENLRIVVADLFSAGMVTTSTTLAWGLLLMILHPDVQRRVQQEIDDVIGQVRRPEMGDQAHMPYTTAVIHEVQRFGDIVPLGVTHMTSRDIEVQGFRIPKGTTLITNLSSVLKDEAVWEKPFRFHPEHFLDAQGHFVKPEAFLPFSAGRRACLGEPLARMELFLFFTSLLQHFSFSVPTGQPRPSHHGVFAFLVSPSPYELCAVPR
Cytochrome P450 2C9, sequence (P11712 whole entry): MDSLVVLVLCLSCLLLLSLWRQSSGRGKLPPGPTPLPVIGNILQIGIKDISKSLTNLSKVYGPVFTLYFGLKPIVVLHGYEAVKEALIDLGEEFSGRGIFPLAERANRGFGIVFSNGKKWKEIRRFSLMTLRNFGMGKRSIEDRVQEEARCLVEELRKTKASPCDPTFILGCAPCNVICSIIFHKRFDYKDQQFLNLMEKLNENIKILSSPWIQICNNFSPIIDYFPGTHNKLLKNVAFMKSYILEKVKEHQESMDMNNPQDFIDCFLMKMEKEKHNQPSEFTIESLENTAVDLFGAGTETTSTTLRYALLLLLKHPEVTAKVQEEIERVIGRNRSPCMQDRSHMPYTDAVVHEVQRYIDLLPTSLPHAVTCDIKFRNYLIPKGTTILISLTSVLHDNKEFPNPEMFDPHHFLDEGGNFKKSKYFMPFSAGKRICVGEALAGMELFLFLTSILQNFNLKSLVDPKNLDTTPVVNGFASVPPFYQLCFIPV
Cytochrome P450 2C19, sequence (P33261 whole entry): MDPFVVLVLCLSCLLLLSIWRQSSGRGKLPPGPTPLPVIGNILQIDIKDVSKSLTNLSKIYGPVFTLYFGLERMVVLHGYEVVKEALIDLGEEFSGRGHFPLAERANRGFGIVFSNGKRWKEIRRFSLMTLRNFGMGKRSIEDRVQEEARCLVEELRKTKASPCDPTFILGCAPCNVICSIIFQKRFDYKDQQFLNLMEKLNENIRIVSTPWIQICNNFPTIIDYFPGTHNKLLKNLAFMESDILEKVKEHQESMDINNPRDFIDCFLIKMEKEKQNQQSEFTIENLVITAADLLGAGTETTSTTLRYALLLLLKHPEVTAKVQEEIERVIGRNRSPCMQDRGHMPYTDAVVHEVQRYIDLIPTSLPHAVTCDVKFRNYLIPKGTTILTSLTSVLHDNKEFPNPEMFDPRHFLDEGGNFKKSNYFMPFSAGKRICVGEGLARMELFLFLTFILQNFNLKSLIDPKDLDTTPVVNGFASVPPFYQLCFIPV

On to `COc1cc(OC)cc(C(=O)Oc2ccc(/C=N/Nc3nc4ccccc4s3)cc2OC)c1`, for which the EC50 is 7.55 µM (active) in the experiment on H4 and 5.84 µM (active) in experiment [1]. With `COc1cc(-c2nc3ccccn3c2/N=C/c2ccccc2)ccc1O`, on Cytochrome P450 2D6, the AC50 was 28.2 µM (inconclusive). Take `CCOc1ccc(S(=O)(=O)N2CCC(C(=O)NCc3ccco3)CC2)cc1C`: the EC50 was > 120 µM (not active) in experiment [2], 17.5 µM (active) in experiment [3] and 37.6 µM (active) in experiment [4]. The like results for `Cn1c(=O)[nH]c(=O)c2c1nc(Sc1ncccn1)n2CCCc1ccccc1` were, in that order, 18.4 µM (active), 12.3 µM (active) and 83.1 µM (active). For the compound `COc1ccc(OC)c2c(C)c(C)[nH]c12`, in [5], the IC50 is 29.5 µM (active). On the same count and under the same terms, the value for `Cc1cccc(CN2CCN(C(C)C(=O)NC(C)c3ccccc3)CC2)c1` (stereo unspecified) was 84.2 µM (active); that for `COc1cc(/C=C/CN2CCN(Cc3ccc(C)o3)C(CCO)C2)ccc1O` (stereo unspecified) was 363 µM (active). On the same count and under the same terms, the value for `COc1ccc(N[C@@H]2CCN3C(=O)c4ccccc4[C@@H]3C[C@H]2O)cc1` was 74.8 µM (active). For `CC(C)C[C@H](NC(=O)c1nc[nH]c1C(=O)N[C@@H](CC(C)C)C(=O)OC(C)(C)C)C(=O)OC(C)(C)C`, the EC50 was 13.6 µM (active) in experiment [2], 16.8 µM (active) in experiment [3] and 8.87 µM (active) in [4]. On to `Cc1ccc(O)c(/N=C/c2sc3ccccc3c2Cl)c1`, for which, in experiment [5], the IC50 was 39.2 µM (active). Consider `CCN(CC)CCn1cnc2c3c(OC)cccc3nc-2c1O`, for which the EC50 in [2], in experiment [3] and in experiment [4] was > 120 µM (not active) each time. Take `CCN(CC)c1ccc(/C=C2/C(=O)NC(=O)N(Cc3ccco3)C2=O)cc1`: the IC50 in [5] was 126 µM (active). On to `Cc1nc(C/C(=N\N)c2ccc(O)cc2O)cs1`, for which, in [5], the IC50 was 64 µM (active). Consider `COc1ccc(N2Cc3ccc(OC)c(OC)c3C2=O)cc1`, for which the concentration giving a half-maximal response (EC50) in [1] is 0.379 µM (active). On to `O=C(Cn1c(C(F)(F)F)nc2ccccc21)c1ccccc1`, for which the figures for the AC50 on Cytochrome P450 2D6 and at Cytochrome P450 1A2 were 15.8 µM (inconclusive) and 25.1 µM (inconclusive), respectively. In the case of `NC(=O)c1ccccc1-c1nc(-n2ccnc2)c2ccccc2n1`, the AC50 at Cytochrome P450 2D6 was 39.8 µM (inconclusive). Regarding `COc1ccc(NC(=O)CN(C)C(=O)c2cccc(S(=O)(=O)N3CCCc4ccccc43)c2)cc1`, the EC50 in [2] is > 120 µM (not active); in experiment [3] it was > 120 µM (not active); in [4] it was 72.5 µM (active). Consider `O=C(CN1CCN(c2ccc(O)cc2)CC1)Nc1ccccc1C(=O)NCCc1ccccc1`, for which the IC50 in experiment [5] is 41.5 µM (active). As for `CCn1cc(-c2nnnn2-c2ccc(Cl)cc2)c(=O)c2ccccc21`, the AC50 at Cytochrome P450 2D6 is 11.2 µM (inconclusive). `Cc1ccc(NCc2ccccc2O)cc1C`: the IC50 in experiment [5] is 118 µM (active).

With `C=CCc1cc(Cl)ccc1OCCN(C)C`, the EC50 in experiment [6] is > 30 µM (not active); in experiment [7], 0.559 µM (active). In addition, the IC50 in experiment [5] was 157 µM (active). For `O=C1c2ccccc2NC(c2ccc(O)cc2)N1/N=C/c1ccc(O)cc1` (stereo unspecified), the IC50 in [5] was 66.4 µM (active). Regarding `CCCCc1nc2[nH]nc(N)c2c2c1CCCC2`, the half-maximal effective concentration (EC50) is > 120 µM (not active) in experiment [2], 12.5 µM (active) in experiment [3] and 12 µM (active) in experiment [4]. The matching figures for `O=C(Nc1ccc(Br)cc1)c1ccc(F)c(S(=O)(=O)N2CCN(c3ccccn3)CC2)c1`: 11.5 µM (active), > 120 µM (not active) and > 120 µM (not active). The matching figures for `Cc1c(Cl)cccc1N=C(S)N1CCN(S(=O)(=O)c2cccs2)CC1`: 13.1 µM (active), > 120 µM (not active) and > 120 µM (not active). The matching figures for `CCCn1c(N2CCN(CC(=O)c3c(C)n(C)c4ccc(OC)cc34)CC2)nc2c1c(=O)[nH]c(=O)n2C`: 13.5 µM (active), 18.9 µM (active) and > 120 µM (not active). On to `COCC(C)NCc1cccc([N+](=O)[O-])c1` (stereo unspecified), for which the AC50 is 11.2 µM (inconclusive) on Cytochrome P450 2C19, 0.398 µM (inconclusive) at Cytochrome P450 2C9 and 14.1 µM (inconclusive) on Cytochrome P450 2D6. With `Cc1[nH]c2ccc(-c3nnc(S)n3Cc3ccccc3)cc2c1C`, the EC50 in experiment [2], in experiment [3] and in experiment [4] was > 120 µM (not active) in each case. Turning to `Cc1sc2nc(CN3CCOCC3)nc(N3CCOCC3)c2c1C`, in [5], the IC50 was 191 µM (active). On to `C[C@H]1CN(S(=O)(=O)c2cccc3cnccc23)CCN1`, for which the AC50 on Cytochrome P450 2D6 is 39.8 µM (inconclusive). In the case of `CCOc1ccc(NC(=O)NCCN2CCN(c3cccc(C)c3C)CC2)cc1`, the EC50 in [2], in experiment [3] and in experiment [4] was > 120 µM (not active) throughout. `COc1cccc(C(=O)/C=C/c2ccc(SC)cc2)c1`: the figures for the AC50 at Cytochrome P450 2C9 and on Cytochrome P450 2D6 were 10 µM (inconclusive) and 14.1 µM (inconclusive), respectively.
